Calls of active or inactive are those of the source. The rule behind the calls is not given here.
How the values were obtained:
[1] = target: T1, Potassium channel subfamily K member 3 (Homo sapiens, UniProt O14649); experiment: Inhibition of human TASK-1 expressed in Xenopus laevis oocytes assessed as inhibition of channel current at +40mV holding potential by two-electrode voltage clamp assay; assay type: cell-based, Oocyte
Target sequence in this assay (O14649 whole entry): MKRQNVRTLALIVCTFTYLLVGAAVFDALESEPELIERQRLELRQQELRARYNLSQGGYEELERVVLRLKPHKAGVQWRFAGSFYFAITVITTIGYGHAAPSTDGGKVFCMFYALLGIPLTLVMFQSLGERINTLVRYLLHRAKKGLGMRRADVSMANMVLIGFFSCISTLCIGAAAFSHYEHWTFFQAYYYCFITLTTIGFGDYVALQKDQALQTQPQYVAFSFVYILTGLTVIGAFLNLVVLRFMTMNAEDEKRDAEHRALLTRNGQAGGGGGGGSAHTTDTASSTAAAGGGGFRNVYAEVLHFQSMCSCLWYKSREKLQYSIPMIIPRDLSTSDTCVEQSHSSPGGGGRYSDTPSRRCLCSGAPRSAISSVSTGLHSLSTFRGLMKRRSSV

[2] = target: T1, Potassium channel subfamily K member 3; experiment: Inhibition of human TASK-1 expressed in Xenopus laevis oocytes assessed as inhibition of channel current at 10 uM at +40mV holding potential by two-electrode voltage clamp assay; assay type: cell-based; conditions: Oocyte
Target sequence in this assay (O14649 whole entry, looked up): as the sequence (O14649 whole entry) above

[3] = target: T2, Potassium channel subfamily K member 9 (Homo sapiens, UniProt Q9NPC2); experiment: Inhibition of human TASK-3 expressed in Xenopus laevis oocytes assessed as inhibition of channel current at 10 uM at +40mV holding potential by two-electrode voltage clamp assay; assay type: cell-based; conditions: Oocyte
T2 sequence (Q9NPC2 whole entry): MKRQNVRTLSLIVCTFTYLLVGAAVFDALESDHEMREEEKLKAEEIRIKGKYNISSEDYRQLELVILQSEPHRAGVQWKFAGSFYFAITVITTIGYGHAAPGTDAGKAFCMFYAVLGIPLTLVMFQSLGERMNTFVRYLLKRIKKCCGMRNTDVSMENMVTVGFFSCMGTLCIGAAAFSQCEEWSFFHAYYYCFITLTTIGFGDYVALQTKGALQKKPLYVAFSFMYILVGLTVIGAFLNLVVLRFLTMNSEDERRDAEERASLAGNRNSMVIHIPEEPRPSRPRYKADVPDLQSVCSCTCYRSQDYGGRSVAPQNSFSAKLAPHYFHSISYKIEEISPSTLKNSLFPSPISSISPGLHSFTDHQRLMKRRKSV

MCF7 [4] = experiment: Antiproliferative activity against human MCF7 cells with wild type TASK-1 expressing GFP induced by shGFP assessed as inhibition of cell proliferation at 0.148 uM incubated for 24 to 72 hrs by trypan blue exclusion method; assay type: functional, cell-based; conditions: time 24-72 hrs
[5] = target: T2, Potassium channel subfamily K member 9; experiment: Inhibition of human TASK-3 expressed in Xenopus laevis oocytes assessed as inhibition of channel current at +40mV holding potential by two-electrode voltage clamp assay; assay type: cell-based, Oocyte
MCF7 [6] = experiment: Antiproliferative activity against human MCF7 cells with shBP9 induced TASK-3 knockdown assessed as inhibition of cell proliferation at 0.148 uM incubated for 48 to 72 hrs by trypan blue exclusion method; assay type: functional, cell-based; conditions: time 48-72 hrs
MCF7 [7] = experiment: Antiproliferative activity against human MCF7 cells with shBP3 induced TASK-1 knockdown assessed as inhibition of cell proliferation at 0.148 uM incubated for 24 to 72 hrs by trypan blue exclusion method; assay type: functional, cell-based; conditions: time 24-72 hrs
MCF7 [8] = experiment: Antiproliferative activity against human MCF7 cells assessed as inhibition of cell proliferation at 10 uM incubated for 4 days by MTT assay; assay type: functional; design: scale not given: the % may be the effect or the level left; conditions: time 4 day

| SMILES | IC50 [1] [nM] | inhibition [2] | inhibition [3] | also measured |
| --- | --- | --- | --- | --- |
| O=C(c1ccccc1F)N1CCN(Cc2c(-c3ccc(Br)cc3)nc3ccccn23)CC1 | 9500 | – | – | – |
| O=C(Nc1cccc(C(=O)Nc2ncccc2O)c1)c1ccccc1 | – | Active | Active | – |
| CCCS(=O)(=O)Nc1ccccc1C(=O)N[C@H](CC)c1ccc(OC)nc1 | 200 | – | – | – |
| O=C(Nc1cccc(C(=O)Nc2ccc(F)cc2)c1)c1ccccc1 | – | 25% | – | – |
| COc1ccc(NC(=O)c2cccc(NC(=O)c3ccccc3)c2)cc1 | – | 10% | – | – |
| O=C(NCc1ccccc1)c1cccc(NC(=O)c2ccccc2)c1 | – | Active | Active | – |
| O=C(c1cccc(OC(F)(F)F)n1)N1CCN(Cc2c(-c3ccc(Cl)cc3)nc3ccccn23)CC1 | 7600 | – | – | – |
| CCc1ccccc1NC(=O)c1cccc(NC(=O)c2ccccc2)c1 | 148 | Active | Active | Activity (MCF7 [4]): Active; IC50 [5]: 1750 nM; Activity (MCF7 [6]): Active; Activity (MCF7 [7]): Active; Activity (MCF7 [8]): 45% |
| O=C(Nc1cccc(C(=O)Nc2nccs2)c1)c1ccccc1 | 388 | Active | Active | IC50 [5]: 7170 nM |

— ChEMBL document CHEMBL5096243, “Selective TASK-1 Inhibitor with a Defined Structure-Activity Relationship Reduces Cancer Cell Proliferation and Viability” (J Med Chem, 2022)
